Results published in US20250295776A1, “CLEAVAGE RESISTANT CD16 CONSTRUCTS AND USES THEREOF” (Celularity Inc., priority 2022, published 2025).

Assays:
[1] = tested on: CD34+ cells; assay: NK cell differentiation of compound-cultured cells (flow cytometry); type: cell-based, human
From the text: (§1) UCB CD34+ cells were cultivated in presence of cytokines including thrombopoietin, SCF, Flt3 ligand, IL-7, IL-15 and IL-2 for 35 days to produce three-stage NK cells, as described in Example 1. Multi-color flow cytometry was used to determine the phenotypic characteristics of three-stage NK cells.
(§2) For biological testing, the compounds were provided to culture to evaluate their effects on NK cell expansion and differentiation. Specifically, donors of CD34+ cells (StemCell Technology) were thawed and expanded in vitro following NK culture protocol. During the first 14 days of the culture, each CRL compounds was dissolved in DMSO and added to the culture at 10 μM concentration. SR1 (at 10 μM) served as a positive control compound, while DMSO alone without any compound served as a negative control. At the end of the culture on Day 35, cell expansion, natural killer (NK) cell differentiation and cytotoxicity of the cells against K562 tumor cell line were characterized. Due to the large number of the compounds, the testing was performed in two experiments, CRL1-11 and CRL 12-22. The same donors were used for each experiment. Positive and negative controls were also included in both experiments.

[2] = tested on: K562 tumor cell line; assay: Cytotoxicity of compound-cultured cells against K562; type: cell-based; details: 10:1 E:T ratio
Protocol: as §2
Cytotoxicity assay was run using compound cultured cells against K562 tumor cells at 10:1 effector to target ratio (FIGS. 5A-5B) to evaluate cell functions.

[3] = tested on: CD34+ cells; assay: NK cell expansion in 35-day three-stage culture with CRL compounds; type: cell-based, human; details: for cell expansion compared to SR1: 10 μM, Day 35; for expansion, differentiation and cytotoxicity profiles compared to SR1: PNK-007 culture
From the text: as §1, §2

[4] = tested on: CD34 cells; assay: CD34 cell expansion at Day 14 of the culture with CRL compounds; type: cell-based, human; details: 10 μM
Protocol: as §2

[5] = tested on: CD16; assay: NK surface markers and CD16 expression of PNK-CD16VP cells (flow cytometry, day 35); type: cell-based, human; details: n=8
Protocol: Non-transduced PNK cells (NT) served as a control. […] IgG was used as ADCC control. In vivo anti-tumor activity was assessed in a Daudi disseminated Xenograft model in NSG mice. […] Tumor burden in mice was monitored by Bioluminescence Imaging (BLI). Statistical differences between the groups were calculated using paired t-test using Prism.
Cell Expansion and Characterization: Cell expansion was recorded during the culture process.

[6] = tested on: CD16; assay: CD16 expression of CD16 variants transduced CYNK cells (flow cytometry); type: cell-based, human
Protocol: (§3) Human placental CD34+ cells were transduced with a lentivirus vector expressing a CD16 variants as indicated and cultured for 35 days in the presence of cytokines, including thrombopoietin, SCF, Flt3 ligand, IL-7, IL-15 and IL-2, to generate CYNK cells.
The phenotype of CYNK cells was analyzed by multicolor flow cytometry. CYNK cells were washed and stained with fluorochrome-conjugated antibodies diluted in staining buffer [2% fetal bovine serum (FBS) in phosphate buffered saline (PBS)] according to the manufacturer's protocol. Dead cells were labelled with the Live/Dead Fixable Aqua Stain (Invitrogen, Cat #L34957) and gated out. Data were acquired on BD Fortessa X20 flow cytometer (BD Biosciences) and were analyzed using FlowJo software. The data were expressed as % positive cells gated under CD56+CD3-Aqua− single cells based on the viability staining used. Setting of the % positive gate was done using the corresponding isotype-stained samples as controls.

[7] = tested on: HER2+ NCI-N87 gastric tumor cell line; assay: xCELLigence real time cell analysis ADCC assay with trastuzumab against NCI-N87; type: cell-based; details: 4 h and 24 h; E:T ratio of 2:1
Protocol: The HER2^+ NCI-N87 gastric tumor cell line was used as the target cells. CD16 variant transduced CYNK cells were thawed followed by two days recovery were used as the effector cells. […] Target cells were seeded at 8×10^4 cells/well in the 96-well plates in 100 μl assay buffer for 24 hours at 37° C. in 5% CO2. […] CYNK cells were added post 30 minutes antibodies incubation at 37° C. with 5% CO2.
The xCELLigence real time cell analysis (RTCA) system (ACEA Biosciences, San Diego, CA) was used for the determination of the ADCC response mediated by the combination of antibody and effector cells. This system can determine the real time proliferation or cell death in each well of a specialized 96-well plate with electrodes attached to the bottom E-plate by measuring cell adherence as determined by the impedance of the electrical signal that passes through the plate. The more cells that are attached to the bottom of the well the higher the resulting impedance or cell index that is measured. The cell index over time in wells with effector cells, antibody, and target is compared to the cell index in wells with target alone and is converted to a percent cytolysis.
Target cells were incubated with the effector cells in the presence of the antibodies in 200 μl final volume for 24 hours. The xCELLigence software was then used to determine the percent cytotoxicity at 4 and 24 hours of co-culture time.

[8] = tested on: HER2+ NCI-N87 gastric tumor cell line; assay: Cytokine secretion assay (Luminex) of CD16 variants transduced CYNK cells with NCI-N87; type: cell-based
Protocol: Two-day in vitro recovered CYNK cells were used in this assay as the effector cells. The HER2^+ NCI-N87 gastric tumor cell line was used as the target cell. […] The supernatant was then collected after 24 h and used for downstream analysis. The cytokine concentrations were determined by Luminex analysis using a customer selected MILLIPLEX MAP magnetic bead kit (EMD Millipore, Billerica, MA, Cat #HCD8MAG-15K-07 for GM-CSF, TNF-α, and IFN-γ) according to the protocol provided by the manufacturer. The data were analyzed using Belysa software (Millipore Sigma).

[9] = tested on: CD16; assay: Shedding assay of CD16 variants transduced CYNK cells (PMAi 2 h); type: cell-based, human; details: for CD16 shedding percentage: post 2 h PMAi stimulation, n=6 donors, Lentigen LVV
Protocol: Non-transduced (NT) CYNK cells were used as a control. After 2-hour stimulation, cells from each treatment condition were then washed twice with FACS buffer (PBS with 0.5 mM EDTA and 2% FBS) and incubated human Fc block (BD Biosciences, Cat #564220) at room temperature for 10 minutes. Staining was then performed with anti-human CD16 PE (BD Biosciences, Cat #556619), anti-human CD56 APC (BD Biosciences, Cat #555518), and anti-human CD3 APC-H7 (BD Biosciences, Cat #560176), or with the corresponding isotype controls for 30 minutes at 4° C. Following washing 2× with FACS buffer the viability stain 7-Aminoactinomycin D (7-AAD) (BD Biosciences, Cat #559925) was added to all stained samples and incubated for ten minutes prior to data acquisition. The data was acquired on a […] (BD Biosciences, San Jose, CA) and analyzed in FlowJo (Tree Star, Ashland, OR). The data were expressed as % CD56^+CD16+ cells gated under 7-AAD^− cells. Setting of the % positive gate was done using isotype-stained samples as controls.

[10] = tested on: CD16; assay: CD16VP shedding assay (PMA/ionomycin); type: cell-based, human
[11] = tested on: human placental CD34+ cells; assay: Fold expansion of CD16 variants transduced CYNK cells; type: cell-based
From the text: as §3

[12] = in the presence of Trastuzumab, E:T ratio of 1:1
[13] = in the presence of trastuzumab and NCI-N87
[14] = MOI 200, Myc tag, Sirion Bio LVV

Compound: CC(C)c1csc2c(NCCc3c[nH]c4ccccc34)nc(-c3cncc(C#N)c3)nc12 [CRL17, 5-(4-((2-(1H-indol-3-yl)ethyl)amino)-7-isopropylthieno[3,2-d]pyrimidin-2-yl)nicotinonitrile]
- CD56+/CD11a+ subpopulation compared to SR1 [1]: increased
- killing activities compared to cells cultured with SR1 [2]: increased killing activities
- cell expansion compared to SR1 [3]: slightly less expansion

Compound: CC(C)c1csc2c(NCCc3c[nH]c4ccccc34)nc(-c3cncc(F)c3)nc12 [CRL18, N-(2-(1H-indol-3-yl)ethyl)-2-(5-fluoropyridin-3-yl)-7-isopropylthieno[3,2-d]pyrimidin-4-amine]
- CD56+/CD11a+ subpopulation compared to SR1 [1]: increased
- killing activities compared to cells cultured with SR1 [2]: increased killing activities
- cell expansion compared to SR1 [3]: slightly less expansion

Compound: Fc1cncc(-c2nc(NCCc3c[nH]c4ccccc34)c3occc3n2)c1 [CRL19, N-(2-(1H-indol-3-yl)ethyl)-2-(5-fluoropyridin-3-yl)furo[3,2-d]pyrimidin-4-amine]
- CD34 cell expansion [4]: achieved the highest CD34 cell expansion
- cell expansion compared to SR1 [3]: supported cell expansion the best
- expansion, differentiation and cytotoxicity profiles compared to SR1 [3]: very similar

Compound: Cc1cncc(-c2nc(NCCc3c[nH]c4ccccc34)c3occc3n2)c1 [CRL20, N-(2-(1H-indol-3-yl)ethyl)-2-(5-methylpyridin-3-yl)furo[3,2-d]pyrimidin-4-amine]
- CD34 cell expansion [4]: achieved the highest CD34 cell expansion
- cell expansion compared to SR1 [3]: supported cell expansion the best
- expansion, differentiation and cytotoxicity profiles compared to SR1 [3]: very similar

Compound: Cc1cncc(-c2nc(NCCc3c[nH]c4ccccc34)c3scc(C(C)C)c3n2)c1 [CRL21, N-(2-(1H-indol-3-yl)ethyl)-7-isopropyl-2-(5-methylpyridin-3-yl)thieno[3,2-d]pyrimidin-4-amine]
- CD56+/CD11a+ subpopulation compared to SR1 [1]: increased
- killing activities compared to cells cultured with SR1 [2]: increased killing activities
- cell expansion compared to SR1 [3]: slightly less expansion

Compound: N#Cc1cncc(-c2nc(NCCc3c[nH]c4ccccc34)c3occc3n2)c1 [CRL22, 5-(4-((2-(1H-indol-3-yl)ethyl)amino)furo[3,2-d]pyrimidin-2-yl)nicotinonitrile]
- CD34 cell expansion [4]: achieved the highest CD34 cell expansion
- cell expansion compared to SR1 [3]: supported cell expansion the best
- expansion, differentiation and cytotoxicity profiles compared to SR1 [3]: very similar

Compound: CD16VP: high affinity (158 Val) and proteinase cleavage resistant (197Pro) CD16 variant
- CD16 expression [5]: ~65%
- CD16 expression ([6]; 6 donors): 61.9% ± 15.4%
- cytotoxicity change (CYNK+Trastuzumab − CYNK+IgG) compared to NT [7]: significant difference
- GM-CSF secretion against NCI-N87 [8, 12]: 5.4 ± 2.7 ng/1 × 10^6 cells
- IFNg secretion against NCI-N87 [8, 12]: 1.8 ± 1.6 ng/1 × 10^6 cells
- TNFa secretion against NCI-N87 [8, 12]: 0.8 ± 0.3 ng/1 × 10^6 cells
- GM-CSF secretion compared to NT [8, 13]: significant difference
- CD16 shedding resistance post PMAi stimulation ([9]; 6 donors): Yes
- CD16 shedding percentage [9]: 4.3%±3.0%
- CD16VP expression after activation [10]: resistant to shedding

Compound: Construct #1: CD16 variant: 176 V (also referred to as 158 V); 197 Glycine (G); with or without Myc tag
- CD16 expression at Day10, Day35 and post thaw compared to CD16VP ([6]; Lentigen LVV, 6 donors): comparable CD16 expression
- CD16 expression at Day10, 21, 28, 35 and 40 compared to CD16VP [6, 14]: comparable CD16 expression
- CD16 expression at Day 10 compared to CD16VP [6, 14]: comparable CD16 expression
- cytotoxicity change (CYNK+Trastuzumab − CYNK+IgG) compared to NT [7]: significant difference
- GM-CSF secretion compared to NT [8, 13]: significant difference
- cytokine secretion (IFNg, TNFa and GM-CSF) compared to CD16VP [8, 13]: no significant difference
- fold expansion compared to CD16VP and NT ([11]; Lentigen LVV, n=6 donors): comparable fold expansion
- fold expansion compared to CD16VP ([11]; Myc tag, Sirion Bio LVV): comparable fold expansion
- CD16 shedding post PMAi stimulation ([9]; Myc tag, Sirion Bio LVV): trend of shedding resistance
- CD16 shedding percentage [9]: 9.4%±8.5%
